# Earlier results, collected in US20220362140A1, “Novel Dental Care and Cleansing Composition” (GROUP PHARMACEUTICALS, priority 2020, published 2022).
# Details: much higher concentration
structure (smiles),measurement,value
O=BO[O-].[Na+] [Sodium perboarate],Concentration that is toxic,25%
